Data as given in patent US11632963B2, “Tuber storage” (Arysta Lifescience Benelux Sprl, priority 2014, dated 2023).

What was measured:
potatoes [1] = details: 45 g/ton at start and 15 g/ton every 20 days, after 5 months, WO 00/32063, cited from earlier work
[2] = system: potatoes (Bintje and Innovator); assay: Tuber treatment in cabins, sprout formation (Example 2); assay type: in vivo, Solanum tuberosum; details: 600 EC limonene composition, 90 ml/1000 kg then 30 or 90 ml/1000 kg every 3 weeks, fogging
Description: In a second example, use of a 600 EC limonene composition according to example 1 the treatment of potatoes is illustrated.
In this example, 10 equal amounts of potatoes (20 kg Bintje and 20 kg Innovator) were treated in 5 different cabins. The first cabin acted as a control. No treating agent was applied in the first cabin.
In cabin 4, a composition according to example 1 was used, with limonene as active ingredient. The first application was done 2 weeks after harvesting at a concentration of 90 ml/1000 kg potatoes. After this application, the next applications were at a dose of 30 ml/1000 kg potatoes.
In cabin 5, the same composition as used in cabin 4 was used with 600 g/l limonene as active ingredient. The first application was done 2 weeks after harvesting at a concentration of 90 ml/1000 kg potatoes. Every 3 weeks the application was repeated at the same dose.
For all the cabins, the first treatment was on 22 October, 2 weeks after harvest. The potatoes were investigated for sprout formation at February 5, the next year, March 4, and April, 4. For each amount of potatoes the weight loss was determined, the sprout index was determined and the sprout weight was measured.
The sprout weight expressed in grams of the “Innovator”-variety potatoes is depicted in FIG. 3 for each cabin and at the 3 different times, corresponding to around 4, 5 and 6 months after harvest.

[3] = system: Potatoes from the variety Bintje, Innovator and Nicola; assay: Fresh sprout weight of stored potatoes treated by fogging (Example 7); assay type: in vivo, Solanum tuberosum; details: Treatment at 50 ml/ton, corresponding to 450 g limonene/ton or 450 ppm
Description: Potatoes were treated with 100% orange oil every 3 weeks via application by cold fogging using a potato mist blower VEUGEN in the above part of a storage cell between bag fillings and the top of the cell.
Potatoes from the variety Bintje, Innovator and Nicola were stored in a storage room and each storage room (trail number) was treated with a different product in the anti-sprouting treatment. BIO-024 stands for Orange oil, with at least 900 g limonene/1, BIOX M is a trade name of a mint oil based product that is commercially available as an anti-sprouting agent, Gro Stop fog is a trade name of a CIPC containing product for the treatment of sprouting of potatoes.
An overview of the fresh sprout weight and the weight loss of samples that were taken on 11 February, 11 March, 8 April and 6 May is given in Table 6. […] Storage was carried out from 11 October until 16 May the year after, all products were applied by fogging.
Fresh sprout weight was assessed by weighing all sprouts per sample. Sprout weight was calculated for a standard sized sample of 1.0 kg potatoes: Fresh sprout weight(g)=fresh sprout weight sample/(weight sample unloading−sprouts)

potatoes [4] = details: WO 92/10934, cited from earlier work

In the case of `C=C(C)[C@H]1CC=C(C)CC1` [limonene], the weight loss (potatoes [1]; 60 wt % limonene composition, untreated control 5.4%) is listed as 4.5%, the sprout growth (potatoes [1]; limonene as 60 wt % composition, untreated control 100%) is listed as 96.8% and the “effectiveness as treatment agent on its own (sprout formation)” value [2] is listed as “sufficient effectiveness”. For the same compound, the “effectiveness to reach the levels of control obtainable by CIPC or mint oil” value [3] was “not sufficiently effective”, the “influence on potato sprouting” value (potatoes [4]; headspace concentration of 1.70 mg/L after 7 days) was “did not have an influence on potato sprouting” and the eyes with sprouts (potatoes [4]; three unsprouted potatoes exposed to a 2 ml limonene soaked filter paper in a desiccator flask) was 0%.
